Assays:
Experiment in all cases: Drought stress in vivo analysis, efficacy EF from visually scored damage intensity
Brassica napus = details: spray 250 g/ha, scored after recovery phase
Experimental: (§1) Seeds of monocotyledonous and dicotyledonous crop plants were sown in sandy loam in wood-fiber or plastic pots, covered with soil or sand and cultivated in a greenhouse under good growth conditions. The trial plants were treated at the early leaf stage (BBCH10-BBCH13). To assure uniform water supply before commencement of stress, the potted plants were supplied with water by dam irrigation prior to substance application. The inventive compounds formulated in the form of wettable powders (WP) were sprayed onto the green parts of the plants as an aqueous suspension at an equivalent water application rate of 600 I/ha with addition of 0.2% wetting agent (e.g. agrotin). Substance application was followed immediately by stress treatment of the plants. For this purpose, the wood-fiber pots were transferred in plastic inserts in order to prevent them from subsequently drying out too quickly. Drought Stress was Induced by Gradual Drying Out Under the Following Conditions: “Day”: 14 hours with illumination at ˜26-30° C. “Night”: 10 hours without illumination at ˜18-20° C. The duration of the respective stress phases was guided mainly by the condition of the stressed control plants. It was ended (by re-irrigating and transfer to a greenhouse with good growth conditions) as soon as irreversible damage was observed on the stressed control plants. The end of the stress phase was followed by an about 4-7-day recovery phase, during which the plants were once again kept under good growth conditions in a greenhouse. The duration of the recovery phase was guided mainly by when the trial plants had attained a state which enabled visual scoring of potential effects, and is therefore variable. Once this juncture was reached, the intensities of damage were scored visually in comparison to untreated, unstressed controls of the same age. The damage intensity was at first assessed in percent. These values were then used to calculate the efficacy of the test compounds by the following formula: [formula] EF: Efficacy DIs: Damage intensity of the stressed control plants DIh: Damage intensity of the stressed plants treated with test compound The values reported in tables A-1 to A-3 below are mean values from at least one trial with at least two repeats. The effects of selected compounds of the general formula (I) under drought stress on various crop plants were measured. BRSNS=Brassica napus ZEAMX=Zea mays TRZAS=Triticum aestivum

Zea mays = details: spray 250 g/ha, scored after recovery phase
Experimental: as §1

Triticum aestivum = details: spray 20 g/ha, scored after recovery phase
Experimental: as §1

For `CN(C)N(Cc1ccccn1)C(=O)c1c(C(F)F)nn(C)c1Cl` [Compound A6-21, 5-Chloro-3-(difluoromethyl) —N′,N′,1-trimethyl-N-(pyridin-2-ylmethyl)-1H-pyrazole-4-carbohydrazide], the “EF [%] (BRSNS)” value (Brassica napus) was greater than 5% and the “EF [%] (ZEAMX)” value (Zea mays) was greater than 5%.
With `CN(C)N(Cc1ccccc1C#N)C(=O)c1ccsc1` [Compound B2-61] the “EF [%] (BRSNS)” value (Brassica napus) was greater than 5%, the “EF [%] (ZEAMX)” value (Zea mays) was greater than 5% and the “EF [%] (TRZAS)” value (Triticum aestivum) was greater than 5%.
